# Data published in patent publication US10493087B2, “Sialylation-increasing therapies for diseases associated with oxidative stress” (THE UNITED STATES OF AMERICA, AS REPRESENTED BY THE …, priority 2015, dated 2019).
# Tests used:
# [1] = test system: GNE myopathy mice skeletal muscle tissue; settings: cited from earlier work; for Hyposialylation of GNE myopathy mice skeletal muscle tissue: Niethamer et al., Mol Genet Metab 2012
# [2] = test system: heart tissue of GNE −/− mice; assay: SNA lectin staining of heart sections (sialylation status); assay type: in vivo; settings: ~1 year old GNE −/− mice treated since age 10 weeks with 2 g/kg/day; vs untreated GNE −/− mice
# Method: Mouse hearts or skeletal muscle (gluteus) were harvested and fixed in 4% paraformaldehyde for 48 hours at room temperature, dehydrated in 70% ethanol at 4° C., and paraffin-embedded for sectioning (Histoserv, Gaithersburg, Md.). Tissue sections (5 um) were stained with a variety of lectins, as previously described for mouse kidneys and muscle (Kakani et al., Am J Pathol 2012; 180: 1431-40; Niethamer et al., Mol Genet Metab 2012; 107: 748-55) as well as for GNE myopathy patients' muscle (Leoyklang et al., Biomarkers Med 2014; 8: 641-52). Lectin histochemistry was performed with fluorescein isothiocyanate (FITC) labeled lectins WGA and VVA from EY Laboratories (San Mateo, Calif.) and SNA from Vector Laboratories (Burlingame, Calif.). Each slide was also stained with the nuclear dye DAPI. Fluorescence imaging of multiple sections of heart per slide was performed under a Zeiss 510 META confocal laser-scanning microscope. All fluorescent images represent collapsed stacks of confocal Z-sections, imaged at 63× magnification.
# GNE myopathy mice = settings: cited from earlier work; for Prevention of muscle disease in GNE myopathy mice: prophylactic, Malicdan et al., Nature Med 2009
# GNE Myopathy myotubes [3] = assay: Intracellular ROS (DCF fluorescence) in cultured myotubes; assay type: cell-based, mice; settings: GNE Myopathy myotubes treated with 5 mM for 72 h; mean±SEM; untreated 1113±30, littermate controls 115±15
# Method: (§1) Cell cultures and myotubes analysis: Myocytes from Gne^−/−hGNED176V-Tg mice and littermate controls were proliferated in DMEM containing 20% fetal bovine serum and 1% chicken embryo extracts in a 5% CO2 and induced to differentiation in a serum free medium, OPTIPRO™ SFM (Gibco), to make the cells hyposialylated. Where indicated, myotubes were treated with 5 mM NeuAc (Japan Food and Liquor Alliance) or 5 mM NAC (Sigma) for 72 h.
# For the analysis of intracellular ROS, a popular fluorescence-based probe, 2′,7′-dichlorodihydrofluorescein diacetate (DCFH-DA) (Wang et al., Free Radical Biology and Medicine. 1999; 27:612-616; Halliwell and Whiteman, Br J Pharmacol. 2004; 142:231-255) was used. Cells were loaded with 5 μM DCFH-DA (Invitrogen) in PBS for an hour and recovered with phenol red-free DMEM (Gibco) for 30 min at 37° C. in a 5% CO2 incubator. Then the cells were placed in a CYTOFLUOR® Series 4000 multi-well fluorescence plate reader (PerSeptive Biosystems) with temperature maintained at 37° C. The excitation filter was set at 485 nm and the emission filter was set at 530 nm. The fluorescence from each well was captured and recorded.
# GNE Myopathy myotubes [4] = assay: ROS generation under pro-oxidants (H2O2 or menadione), ΔDCF fluorescence; assay type: cell-based, mice; settings: GNE Myopathy myotubes incubated before and during exposure to H2O2 and menadione; vs untreated; p<0.01
# Method: as §1
# To evaluate the ROS generation under pro-oxidants, myotubes cultured in each condition were loaded with 5 μM DCFH-DA for 1 h and recovered in the different concentrations of H2O2 or menadione-containing medium. After 30 min incubation in dark at 37° C., the microplate containing cells with pro-oxidants were placed in a plate reader and fluorescence was captured at every 5 min until it reached a plateau. Maximum fluorescence of each well was used for analysis.
# GNE Myopathy myotubes [5] = assay: Cell viability assay under pro-oxidants (propidium iodide/Hoechst co-staining); assay type: cell-based, mice; settings: treated GNE Myopathy myotubes vs untreated; same concentrations of H2O2 or menadione
# Method: as §1
# For the cell viability assay, myotubes were exposed to H2O2 for 24 h and to menadione for 6 h before staining. Nuclear staining with Hoechst 33342 (Thermo Scientific) and propidium iodide (PI) (Dojindo) was used for morphological assessment of apoptosis by fluorescence microscopy (Lee and Shacter, Journal of Biological Chemistry. 1999; 274:19792-19798). Minimum 200 nuclei were counted and cell viability was calculated by the exclusion of PI-stained nuclei from Hoechst 33342-stained nuclei.
Molecule,Hyposialylation of GNE myopathy mice skeletal muscle tissue [1],"Sialylation status of skeletal muscle (SNA and VVA signal) ([1]; oral 1 g/kg/day for 12 weeks, gastrocnemius, adapted from Niethamer et al., 2012)",Sialylation of glycans in heart tissue (SNA lectin staining) [2],Prevention of muscle disease in GNE myopathy mice (GNE myopathy mice),Mean DCF fluorescence (intracellular ROS generation) (GNE Myopathy myotubes [3]) [AFU],ΔDCF fluorescence increments on exposure to pro-oxidants (GNE Myopathy myotubes [4]),"Muscle force generation in treated mice (GNE myopathy mice; sialic acid supplement, Malicdan et al. 2009, 2008)",Relative cell viability under pro-oxidants (GNE Myopathy myotubes [5])
"CC(=O)NC1C(O)[C@H](O)C(CO)O[C@H]1O (stereo partly shown) [ManNAc, N-acetyl mannosamine]",rescue hyposialylation,restored the sialylation status back to the normal range,significantly increased sialylation,prophylactically prevent muscle disease,,,,
"CC(=O)N[C@H]1[C@H]([C@H](O)[C@H](O)CO)OC(O)(C(=O)O)C[C@@H]1O (stereo partly shown) [NeuAc, N-acetyl neuraminic acid]",rescue hyposialylation,,significantly increased sialylation,prophylactically prevent muscle disease,349±19,significantly decreased,increased in proportion to muscle fiber diameter,more resistant
N[C@@H]1C(O)O[C@H](CO)[C@@H](O)[C@@H]1O (stereo partly shown) [mannosamine],rescue hyposialylation,,,,,,,
sialyllactose,,,,prophylactically prevent muscle disease,,,,
